Experimental data as given in ChEMBL document CHEMBL1130873 (Bioorg Med Chem Lett, 1998).
pIC50: −log10 of the molar value.

Tests used:
[1] = Aerobic cytotoxic activity was evaluated by the growth inhibition of UV4 aerobic cells; type: functional, cell-based; conditions: Cricetulus griseus
SK-OV-3 [2] = assay: (§1) Aerobic cytotoxic activity was evaluated by the growth inhibition of SKOV (human ovarian cancer line) aerobic cells; type: functional, cell-based
[3] = Aerobic cytotoxic activity was evaluated by the growth inhibition of AA8 (chinese hamster) aerobic cells; type: functional, cell-based; conditions: Cricetulus griseus, CHO-AA8
[4] = Concentration required to reduce cell survival tunder hypoxic conditions using the UV4 aerobic cells; type: functional, Cricetulus griseus
SK-OV-3 [5] = assay: as §1; type: functional
[6] = Concentration required to 10% of controls reduce cell survival under hypoxic conditions using the UV4 aerobic cells; type: functional, Cricetulus griseus

| SMILES | pIC50 [1] | pIC50 (SK-OV-3 [2]) | pIC50 [3] | CT10 [4] | CT10 (SK-OV-3 [5]) | CT10 [6] |
| --- | --- | --- | --- | --- | --- | --- |
| NC(=O)c1cc(N(CCCl)CCCl)c([N+](=O)[O-])cc1[N+](=O)[O-] | 3.06 | < 3.00 | 2.84 | 95 µM | – | – |
| CN(C)CCNC(=O)c1cc(N(CCCl)CCCl)c([N+](=O)[O-])cc1[N+](=O)[O-] | 5.51 | – | 3.66 | – | 1300 µM | 400 µM |
